One block for each compound: values may come before it. The source made the active and inactive calls.
Key:
[1] = target: T1, Neuropeptides B/W receptor type 1 (Homo sapiens, UniProt P48145); experiment: human NPBW1 receptor blockade, IC50 – cell-based, fluorescence, dose response, set 6, late-stage follow-up (AID 588583); assay type: functional
T1 sequence (P48145 whole entry): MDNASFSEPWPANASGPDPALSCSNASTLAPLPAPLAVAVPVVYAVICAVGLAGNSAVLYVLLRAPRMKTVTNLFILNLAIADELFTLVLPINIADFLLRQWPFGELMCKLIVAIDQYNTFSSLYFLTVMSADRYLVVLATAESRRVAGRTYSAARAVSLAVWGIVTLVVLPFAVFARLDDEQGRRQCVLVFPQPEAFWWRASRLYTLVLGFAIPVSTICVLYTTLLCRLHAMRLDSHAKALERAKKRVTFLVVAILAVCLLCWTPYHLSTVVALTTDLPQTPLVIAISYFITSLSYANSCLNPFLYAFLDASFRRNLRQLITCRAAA

[2] = target: T2, Melanin-concentrating hormone receptor 1 (Homo sapiens, UniProt Q99705); experiment: Late-stage fluorescence-based counterscreen for antagonists of the G-protein coupled receptor 7 (GPR7): cell-based dose response assay to identify antagonists of the melanin-concentrating hormone receptor 1 (MCHR1) Set 6.; assay type: functional
[3] = target: T1, Neuropeptides B/W receptor type 1; experiment: human NPBW1 receptor blockade, IC50 – cell-based, fluorescence, dose response, set 5, late-stage follow-up (AID 588566); assay type: functional
[4] = target: T2, Melanin-concentrating hormone receptor 1; experiment: Late-stage fluorescence-based counterscreen for antagonists of the G-protein coupled receptor 7 (GPR7): cell-based dose response assay to identify antagonists of the melanin-concentrating hormone receptor 1 (MCHR1) Set 5.; assay type: functional
[5] = target: DNA damage-inducible transcript 3 protein (Mus musculus, UniProt P35639); assay type: functional, Cricetulus griseus
[6] = target: T3, Sphingosine 1-phosphate receptor 2 (Homo sapiens, UniProt O95136); experiment: Late-stage fluorescence-based dose-response cell-based counterscreen assay to identify agonists of the Sphingosine 1-Phosphate Receptor 3 (S1P3): Sphingosine 1-Phosphate Receptor 2 (S1P2) agonist assay.; assay type: functional
[7] = target: Sphingosine 1-phosphate receptor 1 (Homo sapiens, UniProt P21453); experiment: Dose Response Cell-Based Assay for Agonists of the Sphingosine 1-Phosphate Receptor 1 (S1P1): Purchased Analogues. [Related pubchem assays: 1192, 373, 439 ]; assay type: functional
[8] = target: Sphingosine 1-phosphate receptor 4 (Homo sapiens, UniProt O95977); experiment: Late-stage fluorescence-based dose-response cell-based counterscreen assay to identify agonists of the Sphingosine 1-Phosphate Receptor 3 (S1P3): Sphingosine 1-Phosphate Receptor 4 (S1P4) agonist assay.; assay type: functional
[9] = target: T3, Sphingosine 1-phosphate receptor 2; experiment: Dose Response Cell-Based Assay for Agonists of the Sphingosine 1-Phosphate Receptor 2 (S1P2): Purchased Analogues. [Related pubchem assays: 1192, 373, 439 ]; assay type: functional
X-box-binding protein 1 = X-box-binding protein 1 (Homo sapiens, UniProt P17861); assay type: functional, Cricetulus griseus;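 note: confirmatory dose-response counter-screen serving a CHOP assay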
[10] = target: Sphingosine 1-phosphate receptor 3 (Homo sapiens, UniProt Q99500); experiment: Dose Response Cell-Based Assay for Agonists of the Sphingosine 1-Phosphate Receptor 3 (S1P3): Purchased Analogues. [Related pubchem assays: 373, 439 ]; assay type: functional
[11] = target: DNA dC->dU-editing enzyme APOBEC-3G (Homo sapiens, UniProt Q9HC16); experiment: inhibition of APOBEC3G ssDNA deamination – biochemical, fluorescence, single-stranded DNA substrate, SAR follow-up (AID 602136); assay type: functional; settings: read-out: IC50_Mean
[12] = target: DNA dC->dU-editing enzyme APOBEC-3A (Homo sapiens, UniProt P31941); experiment: SAR analysis of small molecule inhibitors of APOBEC3A DNA Deaminase via a fluorescence-based single-stranded DNA deaminase assay.; assay type: functional; settings: read-out: IC50_Mean
Chain of DNA dC->dU-editing enzyme APOBEC-3A (P31941 whole entry): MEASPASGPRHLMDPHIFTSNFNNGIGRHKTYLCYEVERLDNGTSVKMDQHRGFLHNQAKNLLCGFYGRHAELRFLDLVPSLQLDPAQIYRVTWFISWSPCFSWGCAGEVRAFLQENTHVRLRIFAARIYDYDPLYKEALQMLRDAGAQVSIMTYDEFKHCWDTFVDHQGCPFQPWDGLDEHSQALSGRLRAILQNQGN

T3 sequence (O95136 whole entry): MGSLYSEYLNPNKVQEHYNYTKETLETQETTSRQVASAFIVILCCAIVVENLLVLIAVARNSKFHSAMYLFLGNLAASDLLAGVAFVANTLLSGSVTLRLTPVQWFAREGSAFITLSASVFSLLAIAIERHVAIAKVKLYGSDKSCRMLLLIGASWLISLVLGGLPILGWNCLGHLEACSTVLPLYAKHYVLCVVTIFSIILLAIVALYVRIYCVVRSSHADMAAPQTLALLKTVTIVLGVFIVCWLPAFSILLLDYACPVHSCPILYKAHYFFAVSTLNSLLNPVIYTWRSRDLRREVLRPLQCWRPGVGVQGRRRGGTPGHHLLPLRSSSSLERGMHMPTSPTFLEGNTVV
T2 sequence (Q99705 whole entry): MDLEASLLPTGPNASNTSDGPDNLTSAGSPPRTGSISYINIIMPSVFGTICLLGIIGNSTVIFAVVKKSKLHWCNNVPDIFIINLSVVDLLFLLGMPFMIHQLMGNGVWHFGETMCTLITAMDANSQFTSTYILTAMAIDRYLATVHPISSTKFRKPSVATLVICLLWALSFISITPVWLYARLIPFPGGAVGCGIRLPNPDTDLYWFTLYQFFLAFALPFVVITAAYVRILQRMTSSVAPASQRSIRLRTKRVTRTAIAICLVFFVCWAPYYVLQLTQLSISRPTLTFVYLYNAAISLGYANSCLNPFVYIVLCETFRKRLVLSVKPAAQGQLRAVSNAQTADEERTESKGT
Chain of X-box-binding protein 1 (P17861 whole entry): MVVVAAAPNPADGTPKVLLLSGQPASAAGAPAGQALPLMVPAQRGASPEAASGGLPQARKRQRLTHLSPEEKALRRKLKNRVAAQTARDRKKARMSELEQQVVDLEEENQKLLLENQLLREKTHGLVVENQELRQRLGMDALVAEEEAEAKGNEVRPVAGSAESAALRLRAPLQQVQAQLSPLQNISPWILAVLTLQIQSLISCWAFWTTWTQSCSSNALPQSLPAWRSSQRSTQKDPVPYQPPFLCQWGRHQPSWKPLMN
Chain of DNA damage-inducible transcript 3 protein (P35639 whole entry): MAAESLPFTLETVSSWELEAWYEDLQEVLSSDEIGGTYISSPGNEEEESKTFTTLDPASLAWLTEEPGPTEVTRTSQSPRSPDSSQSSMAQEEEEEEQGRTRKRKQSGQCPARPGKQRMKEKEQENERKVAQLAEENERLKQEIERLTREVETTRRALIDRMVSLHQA
Chain of Sphingosine 1-phosphate receptor 4 (O95977 whole entry): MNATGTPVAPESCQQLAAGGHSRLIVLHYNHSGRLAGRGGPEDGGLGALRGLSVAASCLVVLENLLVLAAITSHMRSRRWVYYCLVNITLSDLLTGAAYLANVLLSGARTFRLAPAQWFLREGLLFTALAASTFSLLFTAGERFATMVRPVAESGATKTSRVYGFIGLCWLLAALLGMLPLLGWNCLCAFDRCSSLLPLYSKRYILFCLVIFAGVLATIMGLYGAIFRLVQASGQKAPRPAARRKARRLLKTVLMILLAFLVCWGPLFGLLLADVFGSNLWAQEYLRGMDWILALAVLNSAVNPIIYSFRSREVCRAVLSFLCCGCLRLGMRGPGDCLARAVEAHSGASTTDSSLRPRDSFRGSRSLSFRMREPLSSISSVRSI
Chain of DNA dC->dU-editing enzyme APOBEC-3G (Q9HC16 whole entry): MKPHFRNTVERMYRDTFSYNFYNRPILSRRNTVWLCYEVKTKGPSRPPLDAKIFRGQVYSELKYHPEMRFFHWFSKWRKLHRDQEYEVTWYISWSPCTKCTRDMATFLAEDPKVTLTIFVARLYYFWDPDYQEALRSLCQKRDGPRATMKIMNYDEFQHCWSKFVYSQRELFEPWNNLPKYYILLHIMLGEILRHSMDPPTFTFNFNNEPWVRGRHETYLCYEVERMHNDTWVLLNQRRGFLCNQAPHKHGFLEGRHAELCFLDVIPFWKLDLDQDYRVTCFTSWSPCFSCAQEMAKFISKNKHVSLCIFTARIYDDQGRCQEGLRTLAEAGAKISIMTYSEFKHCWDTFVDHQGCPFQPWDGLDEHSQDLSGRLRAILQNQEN
Chain of Sphingosine 1-phosphate receptor 3 (Q99500 whole entry): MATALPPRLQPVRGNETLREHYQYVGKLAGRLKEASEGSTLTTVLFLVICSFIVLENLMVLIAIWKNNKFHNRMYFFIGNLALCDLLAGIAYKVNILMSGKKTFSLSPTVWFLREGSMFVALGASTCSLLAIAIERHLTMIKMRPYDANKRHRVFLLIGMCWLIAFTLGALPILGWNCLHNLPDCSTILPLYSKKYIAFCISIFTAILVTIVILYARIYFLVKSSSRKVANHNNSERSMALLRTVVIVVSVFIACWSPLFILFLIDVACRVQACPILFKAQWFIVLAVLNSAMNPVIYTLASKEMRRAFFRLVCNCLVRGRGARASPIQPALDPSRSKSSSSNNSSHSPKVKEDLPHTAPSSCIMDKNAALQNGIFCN
Chain of Sphingosine 1-phosphate receptor 1 (P21453 whole entry): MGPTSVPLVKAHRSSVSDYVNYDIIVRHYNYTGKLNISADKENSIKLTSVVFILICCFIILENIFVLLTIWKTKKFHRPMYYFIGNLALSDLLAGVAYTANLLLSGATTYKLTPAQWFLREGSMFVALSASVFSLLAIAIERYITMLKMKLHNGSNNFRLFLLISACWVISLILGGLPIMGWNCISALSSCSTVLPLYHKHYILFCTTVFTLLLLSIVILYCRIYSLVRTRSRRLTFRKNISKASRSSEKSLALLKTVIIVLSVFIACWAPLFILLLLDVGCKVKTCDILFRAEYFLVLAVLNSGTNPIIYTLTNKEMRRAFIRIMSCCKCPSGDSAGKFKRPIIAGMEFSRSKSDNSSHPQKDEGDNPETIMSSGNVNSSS

IC50 [1]: 0.706 µM (active) | IC50 [2]: 0.706 µM (active)
SMILES: N#CC(c1c(F)cccc1Cl)c1c(Cl)cnn(Cc2cccc3ccccc23)c1=O (stereo not drawn)

IC50 [3]: 0.234 µM (active) | IC50 [4]: > 20 µM (inactive)
SMILES: CCOc1ccc(C(C#N)c2c(Cl)cnn(Cc3cccc4ccccc34)c2=O)cc1 (stereo not drawn)

EC50 [6]: > 50 µM (inactive) | EC50 [7]: > 50 µM (not active) | EC50 [8]: > 50 µM (inactive) | EC50 [9]: > 10 µM (not active) | Absolute IC50 (XBP1) (X-box-binding protein 1): 10 µM | EC50 [10]: 0.243 µM (active)
SMILES: CCCc1cc(C(=O)N(C2CCCCC2)C2CCCCC2)no1
Absolute IC50 (CHOP) [5]: 10 µM

SMILES: O=C(CSc1nc2cccnc2[nH]1)Nc1cccc(Br)c1
IC50 [11]: > 99 µM (inactive) | IC50 [12]: > 99 µM (inactive)
